Series [1] deals with primary cerebellar granule cells precursors (CGPs). The series can be described thus: Cell cycle analysis and cell counts in cultured cerebellar granule cell precursors. The format is cell-based, mouse. As to conditions: for fraction of cells in S-phase: CGP with mitogen, 50 uM, 24 hours, flow cytometric DNA content. As for the experimental part:
FIG. 9F: described below. […] Yellow circle indicates normally cycling cells.
Culture of Cerebellar Granule Cell Precursors: Cerebella were harvested from P6-P8 CD1 mouse pups and digested in Papain with DNase, and dissociated in PBS BSA with fire polished pipettes followed by a cell strainer. Granule cell precursors were then separated on a 35%/65% percoll step gradient at 1500 g for 12 minutes as previously described (Wechsler-Reya, supra (1999)). Cells were either transfected at this point or plated at 250K cells/well onto Poly-L-Lysine coated glass coverslips in 24 well plates in 330 uls of Neurobasal Media containing 2% B27 supplement, 1 mM sodium pyruvate, 2 mM glutamine, and 1% penicillin/streptomycin, supplemented with 2.5 ug/ml mouse recombinant Sonic Hedge Hog (R&D systems 461-5H-025) as noted in the text, above.
Cell counts: For immunocytochemistry, all cells in 10 random 40× fields were counted. For the stem cell ablation experiments we used stereo investigator to count all PBK/TOPK cells in the SEZ ventral to the anterior horn at the level of the anterior commissure bilaterally in 3 replicate animals. T-tests were performed in Microsoft Excel.
In general terms: Flow cytometry measures light scatter and fluorescence of single cells or particles in a stream.

Series [2] concerns neural progenitors cultured from E12 mouse telencephalic germinal zones. The series can be described thus: Cell number and cell cycle of attached E12 telencephalic neural progenitors in bFGF.
The test system of another series is Daoy cells. The series can be described thus: Daoy medulloblastoma cell growth (total cell number). As to conditions: cyclopamine alone or combined with MELK siRNA. The format is cell-based, human.
Series [3] has as its system dividing GFAP positive cells. The series can be described thus: Ganciclovir ablation in GFAP promoter HSV-TK transgenic mice, SEZ immunohistochemistry. The format is in vivo, mouse. As to conditions: 21 days ganciclovir, vs non-transgenic controls. An excerpt:
PBK/TOPK positive cells are mitotically active progenitors in vivo: The expression pattern in vitro as a mitotically active kinase, coupled with in vivo data, provided evidence that PBK/TOPK was expressed in several mitotically active progenitor cell populations in the central nervous system, but not in quiescent, slower cycling putative stem cells. To more conclusively establish PBK/TOPK expression in stem and progenitor cells in vivo, we examined PBK/TOPK in transgenic mice expressing the herpes simplex virus thymidine kinase gene (HSV-TK) under control of the GFAP promoter (see, e.g., Bush, T. G., et al., Neuron (1999) 23:297-308; Garcia, supra (2004)). Since HSV-TK phosphorylates the drug ganciclovir and phosphorylated ganciclovir kills cells at mitosis, when these mice are given ganciclovir, all dividing GFAP positive cells are killed. […] Three transgenic mice were treated for 21 days with ganciclovir followed by BrdU injections for two days, and then processed for immunohistochemistry. […] This finding provided direct in vivo evidence that PBK/TOPK positive cells arise from proliferating GFAP positive cells, consistent with PBK/TOPK being expressed exclusively by proliferating progenitor cells in the adult brain. […]
Cell counts: For immunocytochemistry, all cells in 10 random 40× fields were counted. […]

The mark [4] stands for this setting: CGP, twenty-four hours of P38 inhibition.

This note sets out measurements from patent publication US20090163406A1, “COMPOSITIONS AND METHODS FOR DIAGNOSING AND TREATING BRAIN CANCER AND IDENTIFYING NEURAL STEM CELLS” (THE REGENTS OF THE UNIVERSITY OF CALIFORNIA, priority 2004, published 2009).

Structures are written as SMILES. Entries after “also recorded” stand apart in the source; their conditions may differ.

Protocol for Daoy cells: Transient Transfection. […] For transfection of plasmid vectors, the cells were incubated with reagents for 6 hours with the primary progenitor cells, and for 24 hours with N2a cells. […] Incubation with siRNA complex was 6 hours with primary cells and 24 hours with cell lines.
We then examined whether the effect of MELK siRNA is for cell survival or cell proliferation.
Propium iodide-labeled tumor populations were measured for cell death assay after treatment of siRNA for two days (e).

On to `C[S+]([O-])c1ccc(-c2nc(-c3ccncc3)c(-c3ccc(F)cc3)[nH]2)cc1` (centres unmarked) [SB203580], for which the “fraction of cells in S-phase” value in series [1] is “reduces fraction of S-Phase cells; also recorded: dramatic decrease in the fraction of cells in S-phase”; in series [1] (listed as sb203580), “significant decrease in the number of cells re-entering S-phase”. For the same compound, the “cell number in the absence of mitogen” value in series [1] (CGP without mitogen treatment) is “no impact on cell number”. In addition, in series [1] (setting [4]), the “number of NeuN positive cells” value is “without significantly impacting; also recorded: without any impact”. Further, the “number of PBK/TOPK positive cells” value in series [1] (setting [4]) is given as “reduces PBK/TOPK positive cells; also recorded: reduction in the number of the PBK/TOPK positive cells”. The “total number of cells” value in series [1] (proliferating neuronal progenitors) is “decrease in the total number of cells”. Also, in series [2] (in the presence of bFGF), the “cycling cells assessed by flow cytometry” value is “decrease in cycling cells”. Further, in series [2] (long exposures or high doses, 48 hours at highest dose), the DNA aneuploidy entry is listed as “resulted in DNA aneuploidy; also recorded: accumulation of DNA-aneuploid cells”. The cell number result in series [2] (varying doses, in the presence of bFGF) was “dose dependant decrease in proliferation; also recorded: dose dependant decrease in cell number”.
With `CC1=C2C[C@H]3[C@@H](CC=C4C[C@@H](O)CC[C@@]43C)[C@@H]2CC[C@]12O[C@@H]1C[C@H](C)CN[C@H]1[C@H]2C` [cyclopamine], in the series with Daoy cells, the “Daoy cell growth / proliferation with shh-Gli1 pathway inhibitor” value is “inhibition of cell growth”.
On to `Nc1nc(O)c2ncn(COC(CO)CO)c2n1` [ganciclovir], for which the “Dcx positive cells in SEZ” value in series [3] is recorded as “complete ablation”.
